The target in one data set is Histone deacetylase 3 (Homo sapiens, UniProt O15379). Put plainly: Inhibition of HDAC3 (unknown origin) by fluorescence based assay.
The next data set concerns MOLM-13. Description: cells. Format: functional, cell-based. Conditions: Homo sapiens, MOLM-13, 72 h.
Data set [1] has as its target Histone-lysine N-methyltransferase 2A (Homo sapiens, UniProt Q03164). Put plainly: Inhibition of MLL1 (unknown origin) by fluorescence based assay.
Data set [2] has as its system MV4-11. Description: Induction of apoptosis in human MV4-11 cells assessed as viable cells at 50 nmol/L incubated for 72 hrs by Annexin V/PI staining based flow cytometry analysis (reference value: 90.23%). The class given is functional. The conditions noted are these: read-out: Activity.
Data set [3] concerns MV4-11. Description: Induction of apoptosis in human MV4-11 cells assessed as early apoptotic cells at 50 nmol/L incubated for 72 hrs by Annexin V/PI staining based flow cytometry analysis (reference value: 4.17 %). Format: functional. A general note: A flow cytometer gives signals particle by particle.
The test system of data set [4] is MV4-11. Description: Induction of apoptosis in human MV4-11 cells assessed as late apoptotic cells at 50 nmol/L incubated for 72 hrs by Annexin V/PI staining based flow cytometry analysis (reference value: 5.14%). The class given is functional.
Data set [5] relates to MV4-11. Description: Induction of apoptosis in human MV4-11 cells assessed as early apoptotic cells at 100 nmol/L incubated for 72 hrs by Annexin V/PI staining based flow cytometry analysis (reference value: 4.17 %). Format: functional.
Data set [6] relates to MV4-11. Description: Induction of apoptosis in human MV4-11 cells assessed as late apoptotic cells at 100 nmol/L incubated for 72 hrs by Annexin V/PI staining based flow cytometry analysis (reference value: 5.14%). The class given is functional.
Data set [7] is described as follows: Toxicity in mouse implanted in human MV4-11 cells assessed as heart damage at 10 to 30 mg/kg, ip administered daily for 17 days by H and E staining based analysis. The class given is organism-based. Conditions: in vivo, 408 h, dose 10-30 mg/kg, time 17 day.
A short description of data set [8]: Toxicity in mouse implanted in human MV4-11 cells assessed as liver damage at 10 to 30 mg/kg, ip administered daily for 17 days by H and E staining based analysis. The class given is organism-based. The conditions noted are these: in vivo, 408 h, dose 10-30 mg/kg, time 17 day.
Data set [9] in a line: Toxicity in mouse implanted in human MV4-11 cells assessed as lung damage at 10 to 30 mg/kg, ip administered daily for 17 days by H and E staining based analysis. Format: organism-based. The conditions noted are these: in vivo, 408 h, dose 10-30 mg/kg, time 17 day.
Data set [10] relates to MV4-11. Put plainly: Antiproliferative activity against human MV4-11 cells assessed as growth inhibition at 0.1 uM measured after 72 hrs by CellTiterGlo assay. Format: functional. The conditions noted are these: read-out: GI.
Data set [11] concerns MV4-11. Description: Antiproliferative activity against human MV4-11 cells assessed as growth inhibition at 0.2 uM measured after 72 hrs by CellTiterGlo assay. The class given is functional. The conditions noted are these: read-out: GI. On the technique in general: ATP-based viability assays read luminescence as a measure of living cells.
The test system of data set [12] is MV4-11. Description: Antiproliferative activity against human MV4-11 cells assessed as growth inhibition at 0.5 uM measured after 72 hrs by CellTiterGlo assay. Format: functional. Conditions: read-out: GI.
Data set [13] has as its system MV4-11. Put plainly: Antiproliferative activity against human MV4-11 cells assessed as growth inhibition at 0.05 uM measured after 72 hrs in presence of 0.1 uM of vorinostat by CellTiterGlo assay. The class given is functional. The conditions noted are these: read-out: GI.
Data set [14] concerns MV4-11. Description: Antiproliferative activity against human MV4-11 cells assessed as growth inhibition at 0.05 uM measured after 72 hrs in presence of 1 uM of vorinostat by CellTiterGlo assay. Format: functional. The conditions noted are these: read-out: GI.
Data set [15] relates to MV4-11. Description: Antiproliferative activity against human MV4-11 cells assessed as growth inhibition at 0.1 uM measured after 72 hrs in presence of 0.05 uM of vorinostat by CellTiterGlo assay. Format: functional. The conditions noted are these: read-out: GI.
In data set [16] the test system is MV4-11. Description: Antiproliferative activity against human MV4-11 cells assessed as growth inhibition at 0.1 uM measured after 72 hrs in presence of 1 uM of vorinostat by CellTiterGlo assay. Format: functional. Conditions: read-out: GI.
The test system of data set [17] is MV4-11. Put plainly: Antiproliferative activity against human MV4-11 cells assessed as growth inhibition at 0.2 uM measured after 72 hrs in presence of 0.05 uM of vorinostat by CellTiterGlo assay. Conditions: read-out: GI. Format: functional.
The subject of data set [18] is MV4-11. Description: Antiproliferative activity against human MV4-11 cells assessed as growth inhibition at 0.2 uM measured after 72 hrs in presence of 0.4 uM of vorinostat by CellTiterGlo assay. Format: functional. The conditions noted are these: read-out: GI.
The test system of data set [19] is MV4-11. Description: Antiproliferative activity against human MV4-11 cells assessed as growth inhibition at 0.2 uM measured after 72 hrs in presence of 0.5 uM of vorinostat by CellTiterGlo assay. The class given is functional. Conditions: read-out: GI.
The subject of data set [20] is MV4-11. Put plainly: Antiproliferative activity against human MV4-11 cells assessed as growth inhibition at 0.2 uM measured after 72 hrs in presence of 1 uM of vorinostat by CellTiterGlo assay. The class given is functional. The conditions noted are these: read-out: GI.
Data set [21] has as its system MV4-11. Put plainly: Antiproliferative activity against human MV4-11 cells assessed as growth inhibition at 0.4 uM measured after 72 hrs in presence of 0.1 uM of vorinostat by CellTiterGlo assay. The class given is functional. Conditions: read-out: GI.
For data set [22], the system named is MV4-11. Description: Antiproliferative activity against human MV4-11 cells assessed as growth inhibition at 0.4 uM measured after 72 hrs in presence of 0.2 uM of vorinostat by CellTiterGlo assay. Conditions: read-out: GI. Format: functional.
Data set [23] concerns MV4-11. Put plainly: Antiproliferative activity against human MV4-11 cells assessed as growth inhibition at 0.4 uM measured after 72 hrs in presence of 1 uM of vorinostat by CellTiterGlo assay. The class given is functional. The conditions noted are these: read-out: GI.
The test system of data set [24] is MV4-11. Put plainly: Antiproliferative activity against human MV4-11 cells assessed as growth inhibition at 0.5 uM measured after 72 hrs in presence of 1 uM of vorinostat by CellTiterGlo assay. Format: functional. Conditions: read-out: GI.
Data set [25] has as its system MV4-11. Put plainly: Antiproliferative activity against human MV4-11 cells assessed as growth inhibition at 1 uM measured after 72 hrs in presence of 0.05 uM of vorinostat by CellTiterGlo assay. Format: functional. Conditions: read-out: GI.
In data set [26] the test system is MV4-11. Put plainly: Antiproliferative activity against human MV4-11 cells assessed as growth inhibition at 1 uM measured after 72 hrs in presence of 0.5 uM of vorinostat by CellTiterGlo assay. The class given is functional. The conditions noted are these: read-out: GI.
In data set [27] the test system is MV4-11. Description: Antiproliferative activity against human MV4-11 cells assessed as growth inhibition at 2 uM measured after 72 hrs in presence of 0.1 uM of vorinostat by CellTiterGlo assay. The class given is functional. The conditions noted are these: read-out: GI.
Data set [28] relates to MV4-11. Description: Antiproliferative activity against human MV4-11 cells assessed as growth inhibition at 2 uM measured after 72 hrs in presence of 0.2 uM of vorinostat by CellTiterGlo assay. The conditions noted are these: read-out: GI. The class given is functional.
In data set [29] the test system is MV4-11. Put plainly: Antiproliferative activity against human MV4-11 cells assessed as growth inhibition at 2 uM measured after 72 hrs in presence of 0.4 uM of vorinostat by CellTiterGlo assay. The conditions noted are these: read-out: GI. The class given is functional.
Data set [30] concerns MV4-11. Put plainly: Induction of apoptosis in human MV4-11 cells assessed as early apoptotic cells at 200 nM incubated for 72 hrs by Annexin V/PI staining based flow cytometry analysis (reference value: 0.76%). The class given is functional.
For data set [31], the system named is MV4-11. Description: Induction of apoptosis in human MV4-11 cells assessed as late apoptotic cells at 200 nM incubated for 72 hrs in presence of vorinostat by Annexin V/PI staining based flow cytometry analysis (reference value: 6.42 %). The class given is functional.
Data set [32] has as its system MV4-11. Put plainly: Induction of apoptosis in human MV4-11 cells assessed as early apoptotic cells at 600 nM incubated for 72 hrs in presence of vorinostat by Annexin V/PI staining based flow cytometry analysis (reference value: 0.76 %). Format: functional.
Data set [33] relates to MV4-11. Put plainly: Induction of apoptosis in human MV4-11 cells assessed as late apoptotic cells at 600 nM incubated for 72 hrs in presence of vorinostat by Annexin V/PI staining based flow cytometry analysis (reference value: 6.42 %). Format: functional.

SMILES strings stand for the structures. pIC50: −log10 of the molar value.

Chain of Histone deacetylase 3 (O15379 whole entry): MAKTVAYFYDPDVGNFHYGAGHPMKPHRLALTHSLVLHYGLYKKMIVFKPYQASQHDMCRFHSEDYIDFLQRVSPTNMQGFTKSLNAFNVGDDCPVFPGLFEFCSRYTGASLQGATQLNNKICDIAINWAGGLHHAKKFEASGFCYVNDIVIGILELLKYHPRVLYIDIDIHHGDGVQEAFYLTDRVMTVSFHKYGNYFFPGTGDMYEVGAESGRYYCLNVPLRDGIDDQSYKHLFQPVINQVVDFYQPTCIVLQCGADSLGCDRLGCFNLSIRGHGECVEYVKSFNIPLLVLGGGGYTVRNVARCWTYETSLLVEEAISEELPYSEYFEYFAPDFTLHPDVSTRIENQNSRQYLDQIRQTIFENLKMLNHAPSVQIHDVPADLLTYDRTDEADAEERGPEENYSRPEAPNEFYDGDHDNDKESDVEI
Chain of Histone-lysine N-methyltransferase 2A (Q03164 1-2718 limits assumed): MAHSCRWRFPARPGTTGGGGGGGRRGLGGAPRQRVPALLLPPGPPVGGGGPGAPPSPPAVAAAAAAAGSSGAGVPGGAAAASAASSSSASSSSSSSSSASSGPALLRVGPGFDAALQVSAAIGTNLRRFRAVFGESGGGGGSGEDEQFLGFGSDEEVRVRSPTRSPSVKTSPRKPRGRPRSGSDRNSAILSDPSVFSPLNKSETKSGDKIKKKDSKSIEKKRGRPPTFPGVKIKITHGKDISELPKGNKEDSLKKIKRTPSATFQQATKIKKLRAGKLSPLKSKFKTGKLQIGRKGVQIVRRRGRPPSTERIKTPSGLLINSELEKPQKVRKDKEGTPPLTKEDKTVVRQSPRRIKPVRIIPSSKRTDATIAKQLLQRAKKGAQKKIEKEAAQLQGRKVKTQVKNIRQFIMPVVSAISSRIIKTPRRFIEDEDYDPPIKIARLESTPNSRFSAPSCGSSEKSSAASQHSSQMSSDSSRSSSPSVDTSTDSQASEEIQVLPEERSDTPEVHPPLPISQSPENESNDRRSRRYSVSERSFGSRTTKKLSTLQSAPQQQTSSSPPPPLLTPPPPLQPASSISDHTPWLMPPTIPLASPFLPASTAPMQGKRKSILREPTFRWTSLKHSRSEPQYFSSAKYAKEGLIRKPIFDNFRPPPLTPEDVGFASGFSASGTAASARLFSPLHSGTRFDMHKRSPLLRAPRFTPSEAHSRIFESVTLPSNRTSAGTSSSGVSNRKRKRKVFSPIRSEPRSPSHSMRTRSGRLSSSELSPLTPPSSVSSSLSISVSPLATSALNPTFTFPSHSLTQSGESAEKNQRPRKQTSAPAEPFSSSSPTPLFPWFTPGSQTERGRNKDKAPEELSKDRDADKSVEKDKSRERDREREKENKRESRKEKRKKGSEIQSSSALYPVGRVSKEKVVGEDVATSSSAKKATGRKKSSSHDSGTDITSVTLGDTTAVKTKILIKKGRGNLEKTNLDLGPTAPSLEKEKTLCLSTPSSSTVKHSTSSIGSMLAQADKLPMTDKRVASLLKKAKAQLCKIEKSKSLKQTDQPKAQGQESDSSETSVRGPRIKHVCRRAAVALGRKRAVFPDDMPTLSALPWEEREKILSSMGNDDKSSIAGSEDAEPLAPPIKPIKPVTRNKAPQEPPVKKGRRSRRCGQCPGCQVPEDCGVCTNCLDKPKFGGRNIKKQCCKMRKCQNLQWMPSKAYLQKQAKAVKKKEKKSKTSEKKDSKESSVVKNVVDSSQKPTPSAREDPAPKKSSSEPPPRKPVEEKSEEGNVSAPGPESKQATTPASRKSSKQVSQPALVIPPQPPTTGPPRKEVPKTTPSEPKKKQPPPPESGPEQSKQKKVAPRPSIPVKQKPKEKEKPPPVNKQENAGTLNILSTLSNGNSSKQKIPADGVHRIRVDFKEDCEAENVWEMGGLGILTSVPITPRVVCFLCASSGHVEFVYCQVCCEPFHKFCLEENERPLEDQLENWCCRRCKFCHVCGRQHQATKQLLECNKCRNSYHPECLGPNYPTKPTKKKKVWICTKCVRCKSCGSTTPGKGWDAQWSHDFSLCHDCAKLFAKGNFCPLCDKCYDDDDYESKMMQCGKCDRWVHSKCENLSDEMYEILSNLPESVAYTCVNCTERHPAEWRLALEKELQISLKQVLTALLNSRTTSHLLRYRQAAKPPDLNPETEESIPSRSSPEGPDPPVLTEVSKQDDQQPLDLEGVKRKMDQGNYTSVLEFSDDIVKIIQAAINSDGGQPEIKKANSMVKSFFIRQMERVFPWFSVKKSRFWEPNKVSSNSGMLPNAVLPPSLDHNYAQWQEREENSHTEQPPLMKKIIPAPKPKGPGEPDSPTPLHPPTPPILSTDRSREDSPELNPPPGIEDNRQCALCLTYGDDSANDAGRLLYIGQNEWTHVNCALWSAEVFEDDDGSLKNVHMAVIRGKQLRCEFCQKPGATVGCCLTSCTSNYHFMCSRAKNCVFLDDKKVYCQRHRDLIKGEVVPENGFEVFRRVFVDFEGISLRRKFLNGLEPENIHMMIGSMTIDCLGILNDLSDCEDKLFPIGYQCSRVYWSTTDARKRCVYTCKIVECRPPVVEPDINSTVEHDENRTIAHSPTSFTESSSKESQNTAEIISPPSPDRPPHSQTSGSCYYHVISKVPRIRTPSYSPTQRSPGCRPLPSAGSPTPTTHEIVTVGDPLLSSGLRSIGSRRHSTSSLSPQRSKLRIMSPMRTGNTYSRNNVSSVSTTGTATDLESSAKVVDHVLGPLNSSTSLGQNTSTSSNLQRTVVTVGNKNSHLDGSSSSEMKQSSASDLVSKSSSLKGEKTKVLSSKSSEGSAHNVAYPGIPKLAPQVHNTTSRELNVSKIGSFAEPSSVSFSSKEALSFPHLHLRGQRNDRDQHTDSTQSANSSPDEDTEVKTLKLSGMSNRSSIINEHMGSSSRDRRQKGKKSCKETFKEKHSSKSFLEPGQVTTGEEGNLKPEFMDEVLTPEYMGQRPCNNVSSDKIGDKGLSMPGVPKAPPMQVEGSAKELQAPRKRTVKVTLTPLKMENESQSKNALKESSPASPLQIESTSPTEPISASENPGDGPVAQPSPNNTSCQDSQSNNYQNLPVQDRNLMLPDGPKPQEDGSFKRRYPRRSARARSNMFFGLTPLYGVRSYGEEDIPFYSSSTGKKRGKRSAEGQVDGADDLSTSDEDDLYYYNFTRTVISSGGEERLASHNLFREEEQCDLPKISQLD
Chain of Histone-lysine N-methyltransferase 2A (Q03164 2719-3969 limits assumed): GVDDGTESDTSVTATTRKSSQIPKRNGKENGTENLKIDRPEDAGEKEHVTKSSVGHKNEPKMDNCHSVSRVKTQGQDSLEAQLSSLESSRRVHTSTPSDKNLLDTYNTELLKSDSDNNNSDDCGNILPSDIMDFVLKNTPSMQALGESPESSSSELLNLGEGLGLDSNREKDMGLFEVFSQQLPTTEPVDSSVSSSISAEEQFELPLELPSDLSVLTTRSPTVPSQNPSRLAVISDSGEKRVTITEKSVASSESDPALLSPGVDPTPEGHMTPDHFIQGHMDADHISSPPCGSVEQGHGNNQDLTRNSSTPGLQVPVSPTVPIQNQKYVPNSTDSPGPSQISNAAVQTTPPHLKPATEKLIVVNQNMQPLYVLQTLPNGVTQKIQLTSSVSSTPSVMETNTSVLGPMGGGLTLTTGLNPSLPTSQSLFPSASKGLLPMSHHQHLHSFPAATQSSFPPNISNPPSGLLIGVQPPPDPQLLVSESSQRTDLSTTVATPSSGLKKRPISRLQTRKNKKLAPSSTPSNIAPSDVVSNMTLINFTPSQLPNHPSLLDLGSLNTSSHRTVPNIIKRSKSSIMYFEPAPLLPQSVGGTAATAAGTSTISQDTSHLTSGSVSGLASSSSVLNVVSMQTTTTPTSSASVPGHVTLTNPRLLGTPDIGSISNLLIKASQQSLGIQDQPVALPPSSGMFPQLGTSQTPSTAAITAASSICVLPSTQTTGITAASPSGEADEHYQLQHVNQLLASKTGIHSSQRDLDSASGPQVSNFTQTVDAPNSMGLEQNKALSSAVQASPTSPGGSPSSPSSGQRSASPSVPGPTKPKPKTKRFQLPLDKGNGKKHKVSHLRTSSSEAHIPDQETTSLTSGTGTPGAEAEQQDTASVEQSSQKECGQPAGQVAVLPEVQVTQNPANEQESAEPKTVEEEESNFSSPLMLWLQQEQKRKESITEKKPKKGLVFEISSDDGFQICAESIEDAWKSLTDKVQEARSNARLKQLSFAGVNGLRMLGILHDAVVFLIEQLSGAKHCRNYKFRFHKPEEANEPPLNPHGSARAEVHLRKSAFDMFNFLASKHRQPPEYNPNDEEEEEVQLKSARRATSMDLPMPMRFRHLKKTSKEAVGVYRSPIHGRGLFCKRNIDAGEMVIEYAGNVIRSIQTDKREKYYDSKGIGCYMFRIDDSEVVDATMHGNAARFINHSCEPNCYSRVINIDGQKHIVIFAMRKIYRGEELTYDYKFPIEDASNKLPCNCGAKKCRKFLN
Description for MOLM-13: Antiproliferative activity against human MOLM-13 cells assessed as inhibition of cell growth measured after 72 hrs by CellTiterGlo assay

For the compound `Cc1c(F)c(N)cc(C(=O)Nc2cc(-c3ccc(C(=O)NCc4ccc(/C=C/C(=O)NO)cc4)cc3)ccc2N2CCN(C)CC2)c1Cl`, the pIC50 at Histone deacetylase 3 is 6.53; in the data set with MOLM-13, 7.15; in data set [1], 6.88. Further, in the data set with MV4-11 [2], the viability at 0.05 µM came out at 75.7%. In addition, the Activity is 11.03% in the data set with MV4-11 [3]; 10.86% in the data set on MV4-11 [4]; 19.42% with MV4-11 [5]; 7.14% in the data set with MV4-11 [6]; “Non-toxic” in [7]; “Non-toxic” in [8]. Moreover, the Activity entry in data set [9] is “Non-toxic”.
Consider `Cc1c(F)c(N)cc(C(=O)Nc2cc(-c3ccc(C(=O)N4CCOCC4)cc3)ccc2N2CCN(C)CC2)c1Cl`, for which the inhibition of growth at 0.1 µM in the data set on MV4-11 [10] came to 19.4%; in the data set with MV4-11 [15] it was 34.4%; with MV4-11 [16], 88.1%. Besides, the inhibition of growth at 0.2 µM in the data set with MV4-11 [11] is 23.9%; in the data set with MV4-11 [17] it was 36.8%; in the data set with MV4-11 [18], 60.3%; in the data set with MV4-11 [19], 74.7%; with MV4-11 [20] it was 88.2%. The values for the inhibition of growth at 0.5 µM in the data set with MV4-11 [12] and in the data set on MV4-11 [24] were 27.5% and 91.1%, respectively. For the same compound, the figures for the inhibition of growth at 0.05 µM in the data set on MV4-11 [13] and in the data set with MV4-11 [14] were 34.5% and 86.7%, respectively. The inhibition of growth at 0.4 µM in the data set on MV4-11 [21] was found to be 55%; in the data set with MV4-11 [22] it was 59.3%; in the data set with MV4-11 [23] it was 90.8%. Further, the inhibition of growth at 1 µM with MV4-11 [25] came to 52.1%; with MV4-11 [26] it was 77.1%. For the same compound, the inhibition of growth at 2 µM with MV4-11 [27] worked out at 68.6%; in the data set on MV4-11 [28] it was 72.3%; with MV4-11 [29], 89.4%. The Activity worked out at 7.03% in the data set with MV4-11 [30], 7.65% in the data set on MV4-11 [31], 69.5% in the data set on MV4-11 [32] and 19.27% in the data set with MV4-11 [33].

As a reminder, the pIC50 is the negative decadic logarithm of the IC50, by convention in mol/L. Higher therefore signals a small IC50.

Values taken from ChEMBL document CHEMBL6096706, “Discovery of WDR5-MLL1 and HDAC Dual-Target Inhibitors for the Treatment of Acute Myeloid Leukemia” (J Med Chem, 2025).
